Assay results published in article PMC4740242 (Cell reports, 2016).
Values belong to the compound of their own block, whether it stands above or below them.

Tests used:
T674I PDGFRα = T674I PDGFRα (Homo sapiens, UniProt P16234, T674I); test: HotSpot radiometric kinase assay, recombinant T674I PDGFRα; assay type: biochemical; conditions: for inhibition of T674I PDGFRα: 500 nM screening concentration, 10 μM ATP
[1] = tested on: Ba/F3 cells expressing T674I FIP1L1-PDGFRα; test: cells; conditions: Mus musculus, BaF3, 24 h, read-out: IC50 cell growth/viability
BTK = BTK (Homo sapiens, UniProt Q06187); test: Wild-type kinase panel, BTK; assay type: biochemical; conditions: single-dose screen
ERBB2 = ERBB2 (Homo sapiens, UniProt P04626); test: Wild-type kinase panel, ERBB2; assay type: biochemical; conditions: single-dose screen
ERBB4 = ERBB4 (Homo sapiens, UniProt Q15303); test: Wild-type kinase panel, ERBB4; assay type: biochemical; conditions: single-dose screen
C-SRC = C-SRC (Homo sapiens, UniProt P12931); test: Wild-type kinase panel, C-SRC; assay type: biochemical; conditions: single-dose screen
EPHA6 = EPHA6 (Homo sapiens, UniProt Q9UF33); test: Wild-type kinase panel, EPHA6; assay type: biochemical; conditions: single-dose screen
EPHB4 = EPHB4 (Homo sapiens, UniProt P54760); test: Wild-type kinase panel, EPHB4; assay type: biochemical; conditions: single-dose screen
FGR = FGR (Homo sapiens, UniProt P09769); test: Wild-type kinase panel, FGR; assay type: biochemical; conditions: single-dose screen
HCK = HCK (Homo sapiens, UniProt P08631); test: Wild-type kinase panel, HCK; assay type: biochemical; conditions: single-dose screen
LCK = LCK (Homo sapiens, UniProt P06239); test: Wild-type kinase panel, LCK; assay type: biochemical; conditions: single-dose screen
MNK1 = MNK1 (Homo sapiens, UniProt Q9BUB5); test: Wild-type kinase panel, MNK1; assay type: biochemical; conditions: single-dose screen
LRRK2 mutants = test: HotSpot kinase assay, LRRK2 mutants; assay type: biochemical; conditions: single-dose screen verified in dose-response
[2] = tested on: Ba/F3 cells expressing WT FIP1L1-PDGFRα; test: cells; conditions: Mus musculus, BaF3, 24 h, read-out: IC50 cell growth/viability
L1196M ALK = L1196M ALK (Homo sapiens, UniProt Q9UM73, L1196M); test: HotSpot kinase assay, L1196M ALK; assay type: biochemical; conditions: single-dose screen verified in dose-response
[3] = tested on: mutants of the RET tyrosine kinase; test: HotSpot kinase assay, RET mutants; assay type: biochemical; conditions: single-dose screen verified in dose-response
BLK = BLK (Homo sapiens, UniProt P51451); test: Wild-type kinase panel, BLK; assay type: biochemical; conditions: single-dose screen
JAK3 = JAK3 (Homo sapiens, UniProt P52333); test: Wild-type kinase panel, JAK3; assay type: biochemical; conditions: single-dose screen
TXK = TXK (Homo sapiens, UniProt P42681); test: Wild-type kinase panel, TXK; assay type: biochemical; conditions: single-dose screen
CLK3 = CLK3 (Homo sapiens, UniProt P49761); test: Wild-type kinase panel, CLK3; assay type: biochemical; conditions: single-dose screen
RIPK2 = RIPK2 (Homo sapiens, UniProt O43353); test: Wild-type kinase panel, RIPK2; assay type: biochemical; conditions: single-dose screen
[4] = tested on: T790M EGFR mutants (T790M, T790M/L858R, d746-750/T790M); conditions: dose-response

Sequence of T674I PDGFRα (P16234 24-1089 T674I): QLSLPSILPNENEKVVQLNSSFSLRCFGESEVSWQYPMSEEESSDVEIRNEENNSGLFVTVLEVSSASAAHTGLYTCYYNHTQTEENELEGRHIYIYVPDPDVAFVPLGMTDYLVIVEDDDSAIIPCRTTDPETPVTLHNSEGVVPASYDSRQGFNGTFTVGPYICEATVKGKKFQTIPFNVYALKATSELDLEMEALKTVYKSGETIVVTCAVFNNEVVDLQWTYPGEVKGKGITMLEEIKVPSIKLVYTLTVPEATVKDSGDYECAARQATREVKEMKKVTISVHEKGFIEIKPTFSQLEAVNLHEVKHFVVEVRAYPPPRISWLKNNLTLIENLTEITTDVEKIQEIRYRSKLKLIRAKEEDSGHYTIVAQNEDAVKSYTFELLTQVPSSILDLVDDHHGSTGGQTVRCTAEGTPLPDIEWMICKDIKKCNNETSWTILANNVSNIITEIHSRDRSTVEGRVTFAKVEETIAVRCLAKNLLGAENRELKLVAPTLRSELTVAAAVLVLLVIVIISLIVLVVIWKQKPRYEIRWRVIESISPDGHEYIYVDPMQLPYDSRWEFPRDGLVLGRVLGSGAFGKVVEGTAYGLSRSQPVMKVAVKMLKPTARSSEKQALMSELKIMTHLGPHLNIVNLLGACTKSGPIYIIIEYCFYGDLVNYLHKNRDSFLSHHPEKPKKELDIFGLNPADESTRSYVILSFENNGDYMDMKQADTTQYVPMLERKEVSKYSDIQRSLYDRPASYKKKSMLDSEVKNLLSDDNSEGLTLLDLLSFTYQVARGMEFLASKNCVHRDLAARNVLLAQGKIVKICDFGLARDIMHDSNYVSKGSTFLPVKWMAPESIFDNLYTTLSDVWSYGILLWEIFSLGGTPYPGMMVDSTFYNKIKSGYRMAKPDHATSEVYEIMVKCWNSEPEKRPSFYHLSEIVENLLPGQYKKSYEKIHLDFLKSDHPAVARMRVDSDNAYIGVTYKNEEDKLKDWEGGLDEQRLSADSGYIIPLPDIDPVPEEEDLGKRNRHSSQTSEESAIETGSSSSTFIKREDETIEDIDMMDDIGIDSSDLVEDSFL
Sequence of ERBB4 (Q15303 26-1308): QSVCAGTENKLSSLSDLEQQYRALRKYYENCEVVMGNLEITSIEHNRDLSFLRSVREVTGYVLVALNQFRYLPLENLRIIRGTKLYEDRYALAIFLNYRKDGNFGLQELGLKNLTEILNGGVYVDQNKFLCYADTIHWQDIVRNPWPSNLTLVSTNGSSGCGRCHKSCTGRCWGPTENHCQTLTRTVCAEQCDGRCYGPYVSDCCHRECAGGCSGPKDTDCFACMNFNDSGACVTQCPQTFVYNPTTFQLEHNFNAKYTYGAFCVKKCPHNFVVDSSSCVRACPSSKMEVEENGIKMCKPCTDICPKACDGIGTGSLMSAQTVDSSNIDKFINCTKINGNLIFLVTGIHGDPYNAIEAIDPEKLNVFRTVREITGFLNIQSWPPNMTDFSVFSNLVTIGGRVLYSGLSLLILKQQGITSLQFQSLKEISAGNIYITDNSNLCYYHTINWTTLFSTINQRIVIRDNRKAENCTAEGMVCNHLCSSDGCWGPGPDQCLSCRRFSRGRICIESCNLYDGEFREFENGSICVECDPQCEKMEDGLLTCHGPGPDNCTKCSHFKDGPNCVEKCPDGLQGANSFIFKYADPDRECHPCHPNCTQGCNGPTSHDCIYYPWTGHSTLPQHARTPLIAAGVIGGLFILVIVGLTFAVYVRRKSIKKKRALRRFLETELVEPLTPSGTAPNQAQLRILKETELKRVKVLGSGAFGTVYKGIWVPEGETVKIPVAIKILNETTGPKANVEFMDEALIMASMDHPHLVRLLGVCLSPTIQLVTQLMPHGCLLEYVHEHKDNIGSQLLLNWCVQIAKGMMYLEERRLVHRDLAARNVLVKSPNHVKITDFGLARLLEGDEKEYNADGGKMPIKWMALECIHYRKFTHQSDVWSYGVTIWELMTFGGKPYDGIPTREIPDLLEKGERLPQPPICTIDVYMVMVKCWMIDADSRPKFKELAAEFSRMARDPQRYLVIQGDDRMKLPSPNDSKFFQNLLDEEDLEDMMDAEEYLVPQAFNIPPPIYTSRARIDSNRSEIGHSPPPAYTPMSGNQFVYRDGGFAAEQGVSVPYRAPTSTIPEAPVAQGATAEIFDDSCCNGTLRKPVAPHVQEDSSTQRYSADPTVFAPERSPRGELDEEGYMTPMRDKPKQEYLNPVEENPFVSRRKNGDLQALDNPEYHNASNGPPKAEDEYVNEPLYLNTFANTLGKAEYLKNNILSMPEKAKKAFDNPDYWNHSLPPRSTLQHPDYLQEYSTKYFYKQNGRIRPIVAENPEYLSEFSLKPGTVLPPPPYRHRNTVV
Sequence of BTK (Q06187 whole entry): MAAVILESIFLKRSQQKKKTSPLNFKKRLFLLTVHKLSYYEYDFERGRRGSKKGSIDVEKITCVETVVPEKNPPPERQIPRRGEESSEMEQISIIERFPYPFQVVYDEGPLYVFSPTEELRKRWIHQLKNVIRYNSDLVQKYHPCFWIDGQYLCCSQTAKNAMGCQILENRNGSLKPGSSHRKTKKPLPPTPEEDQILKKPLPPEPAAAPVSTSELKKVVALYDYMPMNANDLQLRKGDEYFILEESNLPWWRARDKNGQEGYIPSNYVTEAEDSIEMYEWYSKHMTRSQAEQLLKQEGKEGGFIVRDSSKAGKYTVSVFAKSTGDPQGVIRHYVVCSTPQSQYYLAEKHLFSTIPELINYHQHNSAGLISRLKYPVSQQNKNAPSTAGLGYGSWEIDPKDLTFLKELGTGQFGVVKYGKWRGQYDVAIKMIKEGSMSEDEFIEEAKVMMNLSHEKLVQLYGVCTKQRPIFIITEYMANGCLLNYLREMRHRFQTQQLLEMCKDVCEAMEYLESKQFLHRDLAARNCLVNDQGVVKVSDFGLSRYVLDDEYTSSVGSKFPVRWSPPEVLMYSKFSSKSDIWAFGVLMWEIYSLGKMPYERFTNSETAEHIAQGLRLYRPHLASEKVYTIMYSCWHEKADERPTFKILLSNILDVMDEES
Sequence of EPHA6 (Q9UF33 23-1036): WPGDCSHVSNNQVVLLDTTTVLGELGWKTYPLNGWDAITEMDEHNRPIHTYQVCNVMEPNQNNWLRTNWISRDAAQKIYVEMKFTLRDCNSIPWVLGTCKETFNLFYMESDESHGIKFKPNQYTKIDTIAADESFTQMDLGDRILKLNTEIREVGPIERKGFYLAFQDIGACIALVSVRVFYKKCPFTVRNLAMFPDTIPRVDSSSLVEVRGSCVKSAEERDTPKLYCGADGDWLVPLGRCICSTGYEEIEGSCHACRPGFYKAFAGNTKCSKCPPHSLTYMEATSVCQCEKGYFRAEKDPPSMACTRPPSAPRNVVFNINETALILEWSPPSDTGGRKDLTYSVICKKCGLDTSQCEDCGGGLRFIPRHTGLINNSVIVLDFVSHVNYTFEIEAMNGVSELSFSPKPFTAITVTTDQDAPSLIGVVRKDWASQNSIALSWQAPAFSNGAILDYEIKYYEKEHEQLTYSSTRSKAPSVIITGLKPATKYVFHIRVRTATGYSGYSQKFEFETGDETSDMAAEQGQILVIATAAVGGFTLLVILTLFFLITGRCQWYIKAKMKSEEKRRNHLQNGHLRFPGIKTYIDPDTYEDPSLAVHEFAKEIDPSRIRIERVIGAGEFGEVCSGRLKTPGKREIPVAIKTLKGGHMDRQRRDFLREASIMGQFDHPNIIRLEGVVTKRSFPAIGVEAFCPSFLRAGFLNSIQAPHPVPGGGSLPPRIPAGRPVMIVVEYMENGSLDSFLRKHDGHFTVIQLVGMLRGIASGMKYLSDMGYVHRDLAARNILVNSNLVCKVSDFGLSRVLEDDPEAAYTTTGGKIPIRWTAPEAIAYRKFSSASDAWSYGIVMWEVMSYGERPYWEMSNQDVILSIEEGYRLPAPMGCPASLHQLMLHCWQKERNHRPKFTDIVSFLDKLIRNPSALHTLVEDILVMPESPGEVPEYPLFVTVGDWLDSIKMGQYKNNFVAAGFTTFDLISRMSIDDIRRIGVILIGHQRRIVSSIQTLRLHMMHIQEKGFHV
Sequence of EPHB4 (P54760 16-987): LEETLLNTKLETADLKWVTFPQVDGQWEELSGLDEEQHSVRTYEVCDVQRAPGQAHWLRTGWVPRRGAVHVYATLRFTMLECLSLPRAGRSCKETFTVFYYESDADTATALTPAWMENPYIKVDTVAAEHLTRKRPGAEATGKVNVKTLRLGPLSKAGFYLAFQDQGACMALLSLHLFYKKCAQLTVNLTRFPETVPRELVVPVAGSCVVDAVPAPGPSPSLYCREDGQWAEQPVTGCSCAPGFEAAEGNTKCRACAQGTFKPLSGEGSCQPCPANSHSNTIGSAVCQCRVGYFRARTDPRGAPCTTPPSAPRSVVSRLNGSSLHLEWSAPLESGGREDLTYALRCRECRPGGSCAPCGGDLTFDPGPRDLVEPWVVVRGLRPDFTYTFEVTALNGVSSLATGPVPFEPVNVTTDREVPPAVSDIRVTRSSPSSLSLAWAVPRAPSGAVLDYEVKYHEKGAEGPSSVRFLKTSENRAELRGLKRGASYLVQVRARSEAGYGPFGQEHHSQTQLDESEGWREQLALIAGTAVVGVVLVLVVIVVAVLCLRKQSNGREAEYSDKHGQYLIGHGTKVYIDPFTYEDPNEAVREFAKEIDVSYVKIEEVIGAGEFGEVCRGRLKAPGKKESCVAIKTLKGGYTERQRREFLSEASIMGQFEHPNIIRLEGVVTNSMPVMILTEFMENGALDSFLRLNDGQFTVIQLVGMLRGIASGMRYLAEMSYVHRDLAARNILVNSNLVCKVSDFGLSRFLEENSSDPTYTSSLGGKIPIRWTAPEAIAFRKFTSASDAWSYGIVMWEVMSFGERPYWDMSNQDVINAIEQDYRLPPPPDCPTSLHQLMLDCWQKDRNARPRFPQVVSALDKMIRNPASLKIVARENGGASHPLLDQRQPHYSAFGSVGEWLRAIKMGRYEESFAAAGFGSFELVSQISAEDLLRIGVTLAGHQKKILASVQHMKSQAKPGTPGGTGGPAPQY

Compound: CN(C)C/C=C/C(=O)Nc1cc2c(Nc3ccc(F)c(Cl)c3)ncnc2cc1O[C@H]1CCOC1 [afatinib]
- inhibition of BTK (BTK): more than 50%
- inhibition of ERBB2 (ERBB2): more than 50%
- inhibition of ERBB4 (ERBB4): more than 50%
- inhibition of C-SRC (C-SRC): more than 50%
- inhibition of EPHA6 (EPHA6): more than 50%
- inhibition of EPHB4 (EPHB4): more than 50%
- inhibition of FGR (FGR): more than 50%
- inhibition of HCK (HCK): more than 50%
- inhibition of LCK (LCK): more than 50%
- inhibition of MNK1 (MNK1): more than 50%

Compound: COc1cc2ncnc(Nc3ccc(Oc4ccccc4)cc3)c2cc1OC [compound 3]
- potency relative to compound 4 against T674I PDGFRα (T674I PDGFRα; IC50 comparison): several-fold more potent

Compound: Flt-3 Inhibitor
- inhibition of LRRK2 mutants (in words) (LRRK2 mutants): inhibit

Compound: C#Cc1cccc(Nc2ncnc3cc(OCCOC)c(OCCOC)cc23)c1 [erlotinib]
- inhibition of T674I PDGFRα (T674I PDGFRα): > 90%
- IC50 [2]: 14.5 µM
- IC50 [1]: 1.64 µM

Compound: bosutinib isomer
- inhibition of crizotinib-resistant L1196M ALK (in words) (L1196M ALK): inhibitor

Compound: Jak3 Inhibitor II
- inhibition of LRRK2 mutants (in words) (LRRK2 mutants): inhibit

Compound: EGFR/ErbB2/ErbB4 Inhibitor
- inhibition of BLK (BLK): more than 50%
- inhibition of BTK (BTK): more than 50%
- inhibition of ERBB4 (ERBB4): more than 50%
- inhibition of JAK3 (JAK3): more than 50%
- inhibition of TXK (TXK): more than 50%
- inhibition of CLK3 (CLK3): more than 50%
- inhibition of RIPK2 (RIPK2): more than 50%
- apparent IC50 against all T790M EGFR kinases (in words) [4]: low nanomolar

Further lines, results first:

- inhibition of T674I PDGFRα (T674I PDGFRα): > 90%
- IC50 [1]: 0.0452 µM
Compound: CCN(CC)CCNC(=O)c1c(C)[nH]c(/C=C2\C(=O)Nc3ccc(F)cc32)c1C [sunitinib]

- fold more potent than compound 2 against T674I PDGFRα (T674I PDGFRα; IC50 comparison, meta vs para substituent): 2 fold
Compound: COc1cc2ncnc(Nc3cccc(O)c3)c2cc1OC [compound 1]

- fold less potent than compound 3 against T674I PDGFRα (T674I PDGFRα; IC50 comparison): ~ 2 fold
Compound: COc1cc2ncnc(Nc3ccc(O)cc3)c2cc1OC [compound 2]

- inhibition of T674I PDGFRα (T674I PDGFRα): > 90%
- IC50 [1]: 0.144 µM
Compound: CNC(=O)c1cc(Oc2ccc(NC(=O)Nc3ccc(Cl)c(C(F)(F)F)c3)cc2)ccn1 [sorafenib]

- fold more potent than compound 7 against T674I PDGFRα (T674I PDGFRα; IC50 comparison): approximately 1.5 fold
Compound: COc1cc2ncnc(Nc3cccc(Br)c3)c2cc1OC [compound 6]

- fold more potent than compound 7 against T674I PDGFRα (T674I PDGFRα; IC50 comparison): approximately 1.5 fold
Compound: COc1cc2ncnc(Nc3cccc(Cl)c3)c2cc1OC [compound 5]

- inhibition of T674I PDGFRα (T674I PDGFRα): > 90%
- IC50 [1]: 3.17 µM
Compound: Cc1ccc(Nc2nccc(N(C)c3ccc4c(C)n(C)nc4c3)n2)cc1S(N)(=O)=O [pazopanib]

- inhibition of RET mutants (in words) [3]: can inhibit
Compound: Cc1cc(Nc2cc(N3CCN(C)CC3)nc(Sc3ccc(NC(=O)C4CC4)cc3)n2)[nH]n1 [tozasertib]
